Assay results taken from patent publication US20250206714A1, “COMPOSITIONS AND METHODS FOR TREATMENT OF INFLAMMATORY DISEASES” (Invea Therapeutics, Inc., priority 2022, published 2025).

Legend:
CYP 2C9 = target: T1, CYP 2C9 (Homo sapiens, UniProt P11712); experiment: Metabolic stability in human liver microsomes with CYP 2C9 inhibitor Sulfaphenazole; format: in vitro ADME; details: 1 μM + Sulfaphenazole (20 μM)
T1 construct: The experiment was conducted in human liver microsomes; from tissue; host or cells: human liver microsomes
T1 sequence (P11712 whole entry): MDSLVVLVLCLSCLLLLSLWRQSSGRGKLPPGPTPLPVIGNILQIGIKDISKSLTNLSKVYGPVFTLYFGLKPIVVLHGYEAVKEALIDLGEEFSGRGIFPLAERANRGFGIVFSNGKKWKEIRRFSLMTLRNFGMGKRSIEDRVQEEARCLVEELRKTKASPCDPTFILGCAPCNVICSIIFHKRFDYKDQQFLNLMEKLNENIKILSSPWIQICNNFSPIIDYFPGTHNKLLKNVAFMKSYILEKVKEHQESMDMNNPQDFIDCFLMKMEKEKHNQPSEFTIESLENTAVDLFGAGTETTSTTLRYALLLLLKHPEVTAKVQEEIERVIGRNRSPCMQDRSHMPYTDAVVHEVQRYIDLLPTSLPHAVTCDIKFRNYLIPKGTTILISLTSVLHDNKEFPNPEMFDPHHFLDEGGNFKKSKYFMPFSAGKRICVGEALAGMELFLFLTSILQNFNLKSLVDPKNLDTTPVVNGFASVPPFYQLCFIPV

[1] = Metabolic stability assay in human liver microsomes in the presence of specific cytochrome P450 inhibitors (arm without inhibitor, summary statements); details: for % rem @ 5 min / % rem @ 15 min / % rem @ 30 min / % rem @ 45 min: 1 μM, no inhibitor
MDR1 (P-gp) = experiment: in vitro; parameters: Papp A→B at 60 min / Papp B→A at 60 min / efflux ratio at 60 min / recovery at 60 min / % recovery Apical concentration-Basal concentration / % recovery Basal concentration-Apical concentration: dose or concentration left out as unconfirmed; details: dog; for efflux ratio at 60 min: MDCK-MDR1
Experimental: (§1) Digoxin is used as reference and lucifer yellow is used as the integrity marker. […] Papp, efflux ratio and percent recovery are calculated.

MDR1 = experiment: in vitro; parameters: Papp A→B at 60 min / Papp B→A at 60 min / efflux ratio at 60 min / recovery at 60 min / % recovery Apical concentration-Basal concentration / % recovery Basal concentration-Apical concentration: dose or concentration left out as unconfirmed; details: dog, MDCK-MDR1
Experimental: as §1

IL-1β = experiment: LPS+ATP-induced model of inflammasome activation, plasma IL-1β by ELISA; format: in vivo, Balb/c mice; details: 20 mg/kg, Intraperitoneal; mice plasma
Experimental: The procedures detailed here can be utilized for testing all compounds of the disclosure. The example utilizes LPS+ATP-induced model of inflammasome activation in 8-10 weeks old male Balb/c mice for in vivo testing.
8-10 weeks old male Balb/c mice were challenged by intraperitoneal (i.p.) injection of 200 μg/Kg (0.2 μg/g) LPS at t=0 hr, followed by i.p. injection of 5 mM solution of ATP at t=2 hr (2 h after LPS challenge). The compound of disclosure being tested for inhibitory activity (such as Compound 6) was administered both via intraperitoneal and oral route at −1 hr. Different doses of the compound of the disclosure were given to the mice […] as shown below.
MCC950, a specific small molecule inhibitor of NLRP3 inflammasome was used as a positive control to enable comparison of inhibitory activity of the compounds of the disclosure along with a known inhibitor. 2.5 hours after the LPS priming (or 0.5 hours after ATP administration), blood was collected via retro-orbital bleeding in heparinized blood collection tubes. Blood was centrifuged for 5 minutes at 10,000 rpm in a refrigerated centrifuge to obtain plasma. Separated plasma was used for cytokine assessment by ELISA. The standard curve (OD VS concentration) for IL-1β was also plotted and used to determine the IL-1β concentration for the OD values. The percentage of inhibition of IL-1β was calculated using the formula: […]

CYP 3A4 = CYP 3A4 (Homo sapiens, UniProt P08684); experiment: Metabolic stability in human liver microsomes with CYP 3A4 inhibitor Ketoconazole; details: 1 μM + Ketoconazole (20 μM)
Chain of CYP 3A4 (P08684 whole entry): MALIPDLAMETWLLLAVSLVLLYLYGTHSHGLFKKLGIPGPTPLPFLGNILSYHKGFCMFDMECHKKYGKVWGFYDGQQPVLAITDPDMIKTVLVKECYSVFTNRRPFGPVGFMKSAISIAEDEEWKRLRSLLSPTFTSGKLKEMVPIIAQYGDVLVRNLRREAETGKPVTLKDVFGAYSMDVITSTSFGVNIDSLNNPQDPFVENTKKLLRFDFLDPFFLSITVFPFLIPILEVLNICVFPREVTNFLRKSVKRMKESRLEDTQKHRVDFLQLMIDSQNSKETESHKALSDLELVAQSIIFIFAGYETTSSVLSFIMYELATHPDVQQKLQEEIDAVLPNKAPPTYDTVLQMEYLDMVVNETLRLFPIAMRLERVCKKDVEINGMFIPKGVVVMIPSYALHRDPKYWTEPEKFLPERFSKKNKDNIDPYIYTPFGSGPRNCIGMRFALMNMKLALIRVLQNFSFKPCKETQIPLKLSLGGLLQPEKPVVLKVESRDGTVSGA

CYP 2C19 = target: T2, CYP 2C19 (Homo sapiens, UniProt P33261); experiment: Metabolic stability in human liver microsomes with CYP 2C19 inhibitor Nootkatone; format: in vitro ADME; details: 1 μM + Nootkatone (20 μM)
T2 construct: The experiment was conducted in human liver microsomes; from tissue; host or cells: human liver microsomes
T2 sequence (P33261 whole entry): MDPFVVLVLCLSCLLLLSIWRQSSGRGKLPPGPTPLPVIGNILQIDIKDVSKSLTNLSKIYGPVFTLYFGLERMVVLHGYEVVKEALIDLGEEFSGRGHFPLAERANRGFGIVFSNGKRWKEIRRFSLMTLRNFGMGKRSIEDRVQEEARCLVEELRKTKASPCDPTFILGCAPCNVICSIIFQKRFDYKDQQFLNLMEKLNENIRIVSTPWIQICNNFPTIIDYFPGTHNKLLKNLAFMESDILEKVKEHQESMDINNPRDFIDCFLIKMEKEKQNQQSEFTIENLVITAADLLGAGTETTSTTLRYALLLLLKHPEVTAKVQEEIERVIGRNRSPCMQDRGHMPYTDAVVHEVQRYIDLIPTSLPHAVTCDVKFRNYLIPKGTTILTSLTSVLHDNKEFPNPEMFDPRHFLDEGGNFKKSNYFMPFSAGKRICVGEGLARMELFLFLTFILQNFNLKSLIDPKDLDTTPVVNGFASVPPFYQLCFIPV

CYP 1A2 = target: T3, CYP 1A2 (Homo sapiens, UniProt P05177); experiment: Metabolic stability in human liver microsomes with CYP 1A2 inhibitor Furafylline; format: in vitro ADME; details: 1 μM + Furafylline (20 μM)
T3 construct: The experiment was conducted in human liver microsomes; from tissue; host or cells: human liver microsomes
T3 sequence (P05177 1-516): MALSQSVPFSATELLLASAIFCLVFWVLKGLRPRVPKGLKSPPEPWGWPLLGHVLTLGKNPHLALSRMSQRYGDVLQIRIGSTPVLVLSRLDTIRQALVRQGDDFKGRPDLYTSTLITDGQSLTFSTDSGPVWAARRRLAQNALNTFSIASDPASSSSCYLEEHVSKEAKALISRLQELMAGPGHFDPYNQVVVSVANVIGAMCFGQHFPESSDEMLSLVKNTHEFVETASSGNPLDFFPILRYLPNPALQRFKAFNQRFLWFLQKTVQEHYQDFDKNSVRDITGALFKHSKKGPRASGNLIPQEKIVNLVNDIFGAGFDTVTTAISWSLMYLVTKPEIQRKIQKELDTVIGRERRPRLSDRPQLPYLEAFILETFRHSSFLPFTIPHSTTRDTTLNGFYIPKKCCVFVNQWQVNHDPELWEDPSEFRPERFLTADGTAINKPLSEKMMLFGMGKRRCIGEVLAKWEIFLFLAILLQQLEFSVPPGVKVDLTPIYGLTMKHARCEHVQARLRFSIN

[2] = test system: MDR1 transfected Madin-Darby canine kidney (MDCK) cell monolayer; experiment: Permeability assay (MDR1-MDCK); parameters: Papp A→B at 60 min / Papp B→A at 60 min / efflux ratio at 60 min / recovery at 60 min / % recovery Apical concentration-Basal concentration / % recovery Basal concentration-Apical concentration: dose or concentration left out as unconfirmed; details: Permeability (MDR1-MDCK) @
Experimental: as §1

[3] = MDCK-MDR1, % recovery Apical concentration-Basal concentration
[4] = MDCK-MDR1, % recovery Basal concentration-Apical concentration
[5] = human, human liver microsomes, pH 7.4

O=C(O)Cc1ccccc1Nc1c(Cl)cccc1Cl [Diclofenac, reference compound]
% rem @ 5 min (CYP 2C9): ~100%
% rem @ 15 min (CYP 2C9): ~100%
% rem @ 30 min (CYP 2C9): 91.9%
% rem @ 45 min (CYP 2C9): 82.0%
half-life at 1 µM (CYP 2C9; pH 7.4, with Sulfaphenazole 20 μM): 131 min
microsomal CLint at 1 μM (CYP 2C9; pH 7.4, with Sulfaphenazole 20 μM, read-out: mCLint): 10.6 µL/min/mg
% rem @ 5 min ([1]; human liver microsomes): 49.5%
% rem @ 15 min ([1]; human liver microsomes): 28.3%
% rem @ 30 min ([1]; human liver microsomes): 10.5%
% rem @ 45 min ([1]; human liver microsomes): 4.93%

C[C@H]1O[C@@H](O[C@H]2[C@@H](O)C[C@H](O[C@H]3[C@@H](O)C[C@H](O[C@H]4CC[C@@]5(C)[C@H](CC[C@@H]6[C@@H]5C[C@@H](O)[C@]5(C)[C@@H](C7=CC(=O)OC7)CC[C@]65O)C4)O[C@@H]3C)O[C@@H]2C)C[C@H](O)[C@@H]1O [Digoxin]
efflux ratio at 60 min (MDR1 (P-gp)): 54.3
recovery at 60 min (MDR1 (P-gp); [3]): 99.9%
recovery at 60 min (MDR1 (P-gp); [4]): ~100%
Papp A→B at 60 min (MDR1): 0.28 ×10⁻⁶ cm/s
Papp B→A at 60 min (MDR1): 15.2 ×10⁻⁶ cm/s

CC(C)(O)c1coc(S(=O)(=O)NC(=O)Nc2c3c(cc4c2CCC4)CCC3)c1 [MCC950, reference compound]
% IL-1 β inhibition (IL-1β): 95%

Cc1ncc2n1-c1ccc(Cl)cc1C(c1ccccc1F)=NC2 [Midazolam]
% rem @ 5 min (CYP 3A4): 96.7%
% rem @ 15 min (CYP 3A4): 97.1%
% rem @ 30 min (CYP 3A4): ~100%
% rem @ 45 min (CYP 3A4): ~100%
% rem @ 5 min ([1]; human liver microsomes): 22.0%
% rem @ 15 min ([1]; human liver microsomes): 2.77%
% rem @ 30 min ([1]; human liver microsomes): <1%
% rem @ 45 min ([1]; human liver microsomes): <1%
half-life at 1 µM ([1]; human, microsomes, pH 7.4): 5.21 min

COc1ccc2[nH]c([S+]([O-])Cc3ncc(C)c(OC)c3C)nc2c1 (centres unmarked) [Omeprazole, reference compound]
% rem @ 5 min (CYP 2C19): 94.8%
% rem @ 15 min (CYP 2C19): 92.7%
% rem @ 30 min (CYP 2C19): 85.0%
% rem @ 45 min (CYP 2C19): 55.6%
half-life at 1 µM (CYP 2C19; pH 7.4, with Nootkatone 20 μM): 59.3 min
microsomal CLint at 1 μM (CYP 2C19; pH 7.4, with Nootkatone 20 μM, read-out: mCLint): 23.4 µL/min/mg
% rem @ 5 min ([1]; human liver microsomes): 95.9%
% rem @ 15 min ([1]; human liver microsomes): 71.1%
% rem @ 30 min ([1]; human liver microsomes): 60.1%
% rem @ 45 min ([1]; human liver microsomes): 28.8%
half-life at 1 µM [1, 5]: 26.4 min
microsomal CLint at 1 μM [1, 5]: 52.6 µL/min/mg

CCOc1ccc(NC(C)=O)cc1 [Phenacetin, reference compound]
% rem @ 5 min (CYP 1A2): ~100%
% rem @ 15 min (CYP 1A2): ~100%
% rem @ 30 min (CYP 1A2): ~100%
% rem @ 45 min (CYP 1A2): 71.9%
half-life at 1 µM (CYP 1A2; pH 7.4, with Furafylline 20 μM): 102 min
microsomal CLint at 1 μM (CYP 1A2; pH 7.4, with Furafylline 20 μM, read-out: mCLint): 13.6 µL/min/mg

CC(C)NCC(O)COc1cccc2ccccc12 (centres unmarked) [Propranolol]
efflux ratio at 60 min (MDR1 (P-gp)): 1.01
recovery at 60 min (MDR1 (P-gp); [3]): 71.5%
recovery at 60 min (MDR1 (P-gp); [4]): ~100%
Papp A→B at 60 min (MDR1): 47.5 ×10⁻⁶ cm/s
Papp B→A at 60 min (MDR1): 48.2 ×10⁻⁶ cm/s

Lucifer yellow
% recovery Apical concentration-Basal concentration [2]: 97.2%
% recovery Basal concentration-Apical concentration [2]: 97.1%
